The values that follow come from ChEMBL document CHEMBL3507680, “University of Dundee, Gates Library screen for HepG2 cell viability”.

The structures appear in SMILES notation.

The series can be described thus: Human HepG2 cell viability assay in 384 well format. In kind it is toxicity, cell-based. On the set-up: dose 125 nL, time 70.5 hour; cytotoxicity at 70.5 h: concentration not given beside the values. Particulars: HepG2 cells, read-out: Inhibition.
With `Cc1cc(CN2CCC3(CC2)C(=O)NCCN3CC2CC2)oc1C`, the cytotoxicity at 70.5 h was found to be 9.39%. The result for `O=C(c1cnc(-c2cccs2)s1)N1CCCC(n2cccn2)C1` (stereo not given) reads -4.26%.

`CCc1nc(C2CCCN2CCCc2nc3ccccc3o2)no1` (stereo not given): the cytotoxicity at 70.5 h was -0.084%.

For the molecule `Cc1noc(C)c1CN1CCCC2(C1)CN(c1nncs1)CCO2` (stereo not given), the cytotoxicity at 70.5 h was -7.2%. With `O=C(c1ccc(F)cc1F)N1C[C@H]2CC[C@@H]1CN(Cc1ccccc1)C2`, the cytotoxicity at 70.5 h was -2.62%. As for `CN(CC1=CCCN(CCc2ccccn2)C1)C(=O)c1ccco1`, the cytotoxicity at 70.5 h was -9.19%. Consider `Cn1cnc2c1C(COCC1CCOCC1)CN(C(=O)c1ccoc1)C2` (stereo not given), for which the cytotoxicity at 70.5 h was determined as 11.3%. The result for `Cc1nc2n(n1)CC(NCC(=O)NCC1(c3ccccc3)CC1)CC2` (stereo not given) reads -3.45%; that for `NC1(CNC(=O)c2cc3ccccc3[nH]2)CCCC1`, 16%. For the molecule `CC(C)c1nc2n(n1)CC(NCc1nnc(-c3ccco3)o1)CC2` (stereo not given), the cytotoxicity at 70.5 h was -11.9%. On to `O=C(O)c1cc2c(nc1-c1ccsc1)CCN(C1CCOC1)CC2` (stereo not given), for which the cytotoxicity at 70.5 h is -12.7%. On to `CC(=O)NCCCc1ncnn1-c1cccc(Cl)c1`, for which the cytotoxicity at 70.5 h is 1.57%. To `Cc1noc(C)c1CN1CC2(CCN(C(=O)c3ccoc3C)C2)CC1=O` (stereo not given) belongs -6.54%; to `CCn1ncc2c1NC(=O)CC2c1cnc(-c2ccccn2)nc1` (stereo not given), -2.85%; to `Cc1noc(C)c1CCCNC(=O)C1CCN(C(=O)C2CC2)CC1`, 24.8%. Turning to `O=C(c1sccc1C1CC1)N1CCCN(Cc2cscn2)CC1`, the cytotoxicity at 70.5 h is -0.238%. As to `Cc1n[nH]c(C)c1CCC(=O)NC1CCCN(c2ccccc2F)C1` (stereo not given), the cytotoxicity at 70.5 h amounted to 6.82%. For the molecule `CCn1nc(C)c(S(=O)(=O)Nc2ccccc2C(=O)OC)c1C`, the cytotoxicity at 70.5 h turned out to be 11.2%.

Take `Cc1csc(CN2CCC[C@]3(C[C@H](Oc4ccccn4)CO3)C2)n1`: the cytotoxicity at 70.5 h turned out to be 16%. To `Cc1ccc2c(n1)N(CCn1cccn1)CCN(C(=O)CC1CC1)C2` belongs -15.3%; to `CN(C)C(=O)c1n[nH]c2c1CN(Cc1nccs1)CC2`, -1.73%. Turning to `COc1cccc(CN(C)Cc2ccccc2C#N)c1OC`, the cytotoxicity at 70.5 h is -1.91%. To `CCc1sc(-c2nnc(CNC(C)Cn3cccn3)o2)cc1C` (stereo not given) belongs -11.3%; to `O=C(c1ccsc1)N1CCN2C[C@H](OCc3cccnc3)C[C@H]2C1`, -13.4%.

For the molecule `CC(C)(C)c1n[nH]cc1CNC1CCC(O)CC1` (stereo not given), the cytotoxicity at 70.5 h was -19.6%. Take `CCOc1cccc2c1OCC(C(=O)NS(=O)(=O)c1ccc(Br)s1)=C2`: the cytotoxicity at 70.5 h is 14.6%. As for `Nc1nc(CN2CCN(c3nccs3)CC2)cs1`, the cytotoxicity at 70.5 h was -5.16%. The result for `c1cnnc(N2CCC(c3nnc(Cn4ccnc4)n3C3CC3)CC2)c1` reads -4.27%. On to `Cc1nc(C)c(C(=O)NCCNc2ncccc2C#N)s1`, for which the cytotoxicity at 70.5 h is -7.46%.

As for `CCCc1cc(NCCn2cccn2)n2ncnc2n1`, the cytotoxicity at 70.5 h was -6.07%.

With `CCn1c(CN(C)C)nnc1C1CCN(Cc2cccc(OC)c2)CC1`, the cytotoxicity at 70.5 h is 4.9%. With `COCc1noc(CN2CC(=O)N(C)c3ccccc3C2=O)n1`, the cytotoxicity at 70.5 h came to 0.208%. As for `Cc1[nH]c2c(F)cccc2c1CC(=O)NCCCNc1cccnc1`, the cytotoxicity at 70.5 h is -11.8%. Regarding `COc1cc(C#N)ccc1OCCN1CCC(n2ccnc2)CC1`, the cytotoxicity at 70.5 h was -7.5%. In the case of `OC(COc1ccc(F)cc1)CN1CCC(Cn2cccn2)CC1` (stereo not given), the cytotoxicity at 70.5 h came to 10.3%. To `Cc1nc2c(c(C)c1CC(=O)NCc1ccccc1F)c(=O)[nH]n2C` belongs -7.35%. `Cc1ccccc1N1CC2(CCN(S(=O)(=O)c3ccccc3)C2)CC1=O` (stereo not given): the cytotoxicity at 70.5 h is -7.42%.

As for `CCCn1[nH]cc/c1=N\C(=O)CN1CCc2cnc(C(C)C)nc2C1`, the cytotoxicity at 70.5 h is -3.5%. Consider `COCC(=O)Nc1cnc(N2CCN(c3ccccc3)CC2)nc1`, for which the cytotoxicity at 70.5 h is 2.64%. For the molecule `CO[C@H]1CCN(S(=O)(=O)c2cccnc2)[C@@H]2CN(CC3CC3)C[C@H]12`, the cytotoxicity at 70.5 h was -6.81%. On to `CN(C)C(=O)[C@@H]1CCO[C@@H]2CCN(CCc3ccccc3)C[C@@H]21`, for which the cytotoxicity at 70.5 h was 1.43%.

For the molecule `CN(C)S(=O)(=O)NCc1cccnc1Oc1ccccc1`, the cytotoxicity at 70.5 h was -6.53%.

Regarding `COc1ccc(N2CCC(N(C)C(=O)C(C)SC)CC2)cc1` (stereo not given), the cytotoxicity at 70.5 h is -6.26%.

Consider `CN1CCC(CCc2ccnc(NC(=O)c3ccccn3)c2)CC1`, for which the cytotoxicity at 70.5 h was 15.4%. As to `Cc1nc(NC(=O)c2cccnc2N2CCOCC2)sc1C`, the cytotoxicity at 70.5 h was -13.9%. To `COCC(C)NC(=O)c1cc(C)n(-c2cccc(OC)c2)c1C` (stereo not given) belongs -5.2%.

For `Cc1nocc1C(=O)N1CCCC2(CCN(c3ccsc3)C2=O)C1` (stereo not given), the cytotoxicity at 70.5 h is -6.39%. On to `CCc1nc(CN(CCc2ccccc2)C2CCN(C)CC2)no1`, for which the cytotoxicity at 70.5 h is -9.81%. In the case of `CS(=O)(=O)CCCNC1CCCN(Cc2noc(C3CC3)n2)C1` (stereo not given), the cytotoxicity at 70.5 h is -7.07%. `CC(=O)NCCOc1c(C)cccc1C`: the cytotoxicity at 70.5 h is -4.39%. For `Cc1cnc(C(=O)N2C[C@@H](NS(C)(=O)=O)[C@@H]3OCCC[C@@H]32)cn1`, the cytotoxicity at 70.5 h was -13.4%. The result for `CNC(=O)C1CCN(S(C)(=O)=O)CC1` reads -10.2%; that for `CC(C)[C@H](N)c1nnc(SCC(=O)Nc2ccc(Br)cc2)o1`, -4.97%.

On to `CN(C)C[C@H]1OC[C@@H]2CCN(C(=O)c3ccco3)C[C@@H]21`, for which the cytotoxicity at 70.5 h was -1.52%.

`CC(Cn1cncn1)NCCN1CCc2ccccc21` (stereo not given): the cytotoxicity at 70.5 h is -5.52%.

`Cc1ccc(C(=O)NCCC2CN(c3cnn(C)c(=O)c3)CCO2)s1` (stereo not given): the cytotoxicity at 70.5 h is -3.44%. For the molecule `CCOCC1CN(C(=O)COc2ccccc2C)Cc2ncn(C)c21` (stereo not given), the cytotoxicity at 70.5 h is -4.87%. With `CCN(Cc1ccncc1)S(C)(=O)=O`, the cytotoxicity at 70.5 h turned out to be 27.1%. As to `CN1CCC(NC(=O)c2cc(C3CCCCC3)nc3ccccc23)CC1`, the cytotoxicity at 70.5 h is -2.29%. For `CC(C)(C)c1cc(C(=O)NCCN2CCCS2(=O)=O)[nH]n1`, the cytotoxicity at 70.5 h is -14.3%. In the case of `COCC(=O)N1CC(=O)c2sc(Nc3ccc(F)cc3F)nc2C1`, the cytotoxicity at 70.5 h stood at 0.281%. `Cn1ccnc1CN1CCC2(CC1)CN(Cc1ccccc1)C(=O)CO2`: the cytotoxicity at 70.5 h was -5.92%. With `CCOCCn1nc(C)cc1C(=O)N1CCOCC(CO)C1` (stereo not given), the cytotoxicity at 70.5 h was 12%. With `CCNC(=O)NC(=O)CNc1cccc(C(=O)c2ccccc2)c1`, the cytotoxicity at 70.5 h was -12.7%. On to `Cc1nc(C2(NCC(=O)NC(=O)Nc3ccccc3)CCCCC2)no1`, for which the cytotoxicity at 70.5 h is -0.595%. Regarding `CC1CCN(C(=O)c2cn(-c3cc(N4CCSCC4)ncn3)cn2)CC1`, the cytotoxicity at 70.5 h was determined as 3.74%. As to `COc1ccc(F)c(NCc2cnn(C3CCS(=O)(=O)C3)c2)c1` (stereo not given), the cytotoxicity at 70.5 h worked out at 8.41%.

`COC(=O)c1sc2nc3c(c(C(F)(F)F)c2c1N)CN(C(C)=O)CC3`: the cytotoxicity at 70.5 h was determined as 5.62%. To `CC(C)=CCN1CCN(Cc2cccc(C)n2)CC1CCO` (stereo not given) belongs 6.26%; to `CC(C)Cn1nc2ccc(S(=O)(=O)N3CCC(C)CC3)cn2c1=O`, -10.3%; to `O=C(CN1CCC(C(=O)c2cc(F)ccc2F)CC1)NC1CC1`, -12%. Consider `Cn1nccc1CNC(=O)C1CCCCC1`, for which the cytotoxicity at 70.5 h was -2.81%. The result for `CC(C)c1nc(C2CCCN(c3nccc(N4CCCC4)n3)C2)no1` (stereo not given) reads -2.95%; that for `Cc1ccc(N2CCC3(CCC(=O)N3Cc3ccncc3)CC2)nn1`, 0.778%; that for `Cc1nc(C)n(CC2CCCN(Cc3cn4c(C)cccc4n3)C2)n1` (stereo not given), -11.6%. Take `Cc1cc(NCCO)nc(N2CCN(C)CC2)c1C#N`: the cytotoxicity at 70.5 h is 1.33%. The result for `c1ncc2c(n1)CN(Cc1nc(-c3ccoc3)no1)CC2` reads -7.49%.

For the molecule `O=C(NCc1ccccn1)NCC(O)c1ccccc1C(F)(F)F` (stereo not given), the cytotoxicity at 70.5 h is -5.77%.

For the molecule `CCOCCNCC1CCN(CCO)CC1`, the cytotoxicity at 70.5 h was -3.07%.

In the case of `COc1ccc(CC(=O)NCC(O)c2sccc2C)cc1OC` (stereo not given), the cytotoxicity at 70.5 h is -6.12%. On to `Cc1cccnc1NC(=O)CNC(=O)c1ccccc1Cl`, for which the cytotoxicity at 70.5 h was -14.5%. As for `CN1CCC(c2cccc(-c3ccc(C(=O)O)cc3)n2)CC1`, the cytotoxicity at 70.5 h is -2.41%. On to `Cc1nc(N(C)C)cc(C2(C)CCCNC2)n1` (stereo not given), for which the cytotoxicity at 70.5 h was -2.1%. For the molecule `CSc1ccc(CNC(c2ccc(F)cc2)c2nccn2C)cc1` (stereo not given), the cytotoxicity at 70.5 h stood at 0.212%. Turning to `COc1ccc(-c2n[nH]cc2CN(C)Cc2nonc2C)c(F)c1`, the cytotoxicity at 70.5 h was -3.77%.

On to `Cc1cnn(CC2CCCN2CC(=O)Nc2cc(C(C)C)no2)c1` (stereo not given), for which the cytotoxicity at 70.5 h is -7.84%. `c1cnn(Cc2ccc(CN3CCC4(CCCNC4)C3)cc2)c1` (stereo not given): the cytotoxicity at 70.5 h worked out at 21.4%. For the molecule `Cc1ccc(C(C)N(C)Cc2nc3c(cnn3C)c(=O)[nH]2)cc1` (stereo not given), the cytotoxicity at 70.5 h is -17.2%. `CCN(CC)c1ncnc2c1CCN(c1ccc(C)nn1)CC2`: the cytotoxicity at 70.5 h is -1.7%.

Consider `CNc1ncc(CN(C)C(=O)[C@@]23CNC[C@@H]2CN(C(=O)C2CC2)C3)cn1`, for which the cytotoxicity at 70.5 h was -7.16%.

On to `Cc1noc(C)c1CC(=O)NCC(C)N1CCOCC1` (stereo not given), for which the cytotoxicity at 70.5 h is -2.99%. To `O=C(NC1CCCN(c2ccc(OC(F)F)cc2)C1)c1cc[nH]n1` (stereo not given) belongs -11.9%; to `CC(C)N(CCNC(=O)c1n[nH]c2ccccc12)C(C)C`, -7.32%. The result for `Cc1cccc(C(=O)N2CCCn3c(CN4CCCCC4)nnc3C2)c1` reads -11.1%; that for `CC(C)(C)Cc1nnc(NCc2cccc(C#N)c2)o1`, -1.69%. `Cc1nnsc1C(=O)N1CC(c2nc3ccccc3[nH]2)C1`: the cytotoxicity at 70.5 h was -14.1%. Consider `Cn1cnnc1SCc1cc2c(cc1Br)OCO2`, for which the cytotoxicity at 70.5 h was -1.06%. As for `Cc1noc(C)c1C(=O)N1CCCCC1c1cc(C)n2ccnc2n1` (stereo not given), the cytotoxicity at 70.5 h was -10.1%. As to `CS(=O)(=O)N[C@@H]1CCN(Cc2cccnc2)[C@H]1Cc1cccnc1`, the cytotoxicity at 70.5 h came out at 13.6%. Take `Cc1nc(CN2CCOC(c3ccc(Cl)cc3)C2)oc1C` (stereo not given): the cytotoxicity at 70.5 h was -7.95%.
